Results: PubChem BioAssay (NCI)
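Method: 48-hour compound exposure of cells in 96-well plates, five concentrations, linear interpolation of endpoints. TGI is the concentration that stops growth completely.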

Experiments:
Assay in all cases: NCI anticancer screen, dose series, 48 h
[1] = test system: 786-0 renal
[2] = test system: A498 renal
[3] = test system: A549 NSCLC
[4] = test system: CAKI-1 renal
[5] = test system: DU-145 prostate
[6] = test system: HCT-116 colon
[7] = test system: HL-60(TB) leukemia
[8] = test system: HOP-92 NSCLC
[9] = test system: HS 578T breast
[10] = test system: KM12 colon
[11] = test system: MOLT-4 leukemia
[12] = test system: OVCAR-5 ovarian
[13] = test system: SF-268 CNS
[14] = test system: SK-MEL-5 melanoma
[15] = test system: SNB-75 CNS
[16] = test system: SR leukemia
[17] = test system: T-47D breast
[18] = test system: U251 CNS
[19] = test system: HOP-62 NSCLC
[20] = test system: LOX IMVI melanoma

Row | Structure (SMILES) | TGI [1] [µM] | TGI [2] [µM] | TGI [3] [µM] | TGI [4] [µM] | TGI [5] [µM] | TGI [6] [µM] | TGI [7] [µM] | TGI [8] [µM] | TGI [9] [µM] | TGI [10] [µM] | TGI [11] [µM] | TGI [12] [µM] | TGI [13] [µM] | TGI [14] [µM] | TGI [15] [µM] | TGI [16] [µM] | TGI [17] [µM] | TGI [18] [µM] | TGI [19] [µM] | TGI [20] [µM]
1 | Cc1sc(N)c(S(=O)(=O)c2ccccc2)c1C | > 100 | > 100 | > 100 | > 100 | > 100 | > 100 | > 100 | > 100 | > 100 | > 100 | > 100 | > 100 | > 100 | > 100 | > 100 | > 100 | > 100 | > 100 |  | 
2 | O=S(=O)(O)c1cc(N=Nc2cc(S(=O)(=O)O)c3cccnc3c2O)ccc1/C=C/c1ccc(N=Nc2cc(S(=O)(=O)O)c3cccnc3c2O)cc1S(=O)(=O)O | > 100 | > 100 | > 100 | > 100 | > 100 | > 100 | 56.5 | > 100 | > 100 | > 100 | 48.3 | > 100 | > 100 | > 100 | > 100 | 51.1 | > 100 | > 100 | > 100 | > 100
3 | CN(C)CC1(Cc2ccccc2)CCC(Cc2ccccc2)C1=O (stereo unspecified) | 4.37 | 29.8 | 33.5 | 23.3 | 28.7 | 26.7 | 12.5 | 40 | 48.9 | 20.9 | 9.11 | 32.8 | 22.6 | 27.4 | 30 | 33.3 | 51.5 | 31.8 | 33 | 15.7
4 | CC1(C)CCCOc2cccc(c2)OCCCC(C)(C)C1=O | > 100 | > 100 | > 100 | > 100 | > 100 | > 100 | > 100 | 99.1 | > 100 | > 100 | 37.1 | > 100 | > 100 | 35.8 | > 100 | > 100 | > 100 | > 100 | > 100 | > 100
5 | O=C1CCCCC(=O)Nc2ccccc2N1 | > 100 | > 100 | > 100 | > 100 | > 100 | > 100 | > 100 | > 100 | > 100 | > 100 | > 100 | > 100 | > 100 | > 100 |  | > 100 | > 100 | > 100 | > 100 | > 100
6 | O=[N+]([O-])C(=C(Nc1ccccc1)Nc1ccccc1)/C(Cl)=C(\Cl)Br | 31.2 | 35.6 | 51.1 |  | 31.1 | 20.1 | 4.41 | 33.6 | > 100 | 26.2 | 13.4 | 22.5 | 43.1 |  | 28.4 | 22.6 | 44.8 | 28.2 | 55.1 | 15.2
7 | CCOC(=O)CCC(NC(=O)c1ccc(Nc2cnc3ccc(C(F)(F)F)cc3n2)cc1)C(=O)OCC (stereo unspecified) | > 56.6 | > 79 | > 100 | > 65.1 | > 100 | > 100 | > 100 | > 43.1 | > 65.9 | > 85.3 | > 100 | > 100 | > 100 | > 100 | 29.9 | > 100 | > 100 | > 100 | > 100 | > 100
8 | CC1(C)CC(=O)c2c(nc(SSc3nc4c(c(-c5ccc(Br)cc5)c3C#N)C(=O)CC(C)(C)C4)c(C#N)c2-c2ccc(Br)cc2)C1 | > 10 | > 10 | > 10 | > 10 | > 10 | > 10 | > 10 | > 10 | > 10 | > 10 | > 10 | > 10 | > 10 | > 10 | > 10 | > 10 | > 10 | > 10 | > 10 | > 10
9 | O=C1CCCCCC1CC(Sc1ccccc1)Sc1ccccc1 (stereo unspecified) | > 100 | > 100 | > 100 | > 100 | > 100 |  | 52.7 | > 100 | > 100 | > 100 | 47.3 | > 100 | > 100 | > 100 | > 100 | > 100 | > 100 | > 100 | > 100 | > 100
10 | Cc1ccc(CC(Cc2ccc(C)cc2C(=O)O)C(=O)O)cc1 (stereo unspecified) | > 100 | > 100 | > 100 | > 100 | > 100 | > 100 | > 100 | > 100 | > 100 | > 100 | > 100 | > 100 | > 100 | > 100 | > 100 | > 100 | > 100 | > 100 | > 100 | > 100
11 | Cn1c2ccccc2n2c3ccccc3c(=O)c(C#N)c12 | > 59.9 | > 75.8 | > 100 | 35.2 | 65.8 | 33.9 | > 100 | > 76.7 | 66.7 | > 100 | 17.8 | > 100 | > 100 | 28.4 | > 96.6 | 48.3 | > 95.6 | 55.5 | > 100 | > 56.1
12 | CC(=O)C(=[N+]=[N-])C(=O)OCCOC(=O)C(=[N+]=[N-])C(C)=O | > 1 | > 1 | > 1 |  | > 1 | > 1 | > 1 | > 1 | > 1 | > 1 | > 1 | > 1 | > 1 | > 1 | > 1 | > 1 | > 1 | > 1 | > 1 | > 1
13 | CC1(C)CCC[C@@]2(C)C1C(=O)[C@@H]1O[C@]1(C)[C@@H]2CO (stereo partly specified) | > 100 | > 100 | > 100 |  | > 100 | > 100 | 51.8 | 88 | > 100 | > 100 | > 100 | > 100 | > 100 | > 100 | 79 | 24.9 | > 100 | 70.8 | > 100 | > 100
14 | C[S+](C)CC(=O)c1ccc2c(c1)Sc1ccccc1O2 | 9.49 | 26.9 | 18.1 | 15 | 11 | 7.32 | > 100 | 21.5 | 22.1 | 2.87 | > 94.4 | 18.8 | 14.6 | 2.92 | 14.2 | > 50.9 | > 44.4 | 17.6 | 28.4 | 20.9
15 | CNC(=O)CNC(=O)C(Cc1ccc(NC(=O)CCCCC(C)=O)cc1)NC(=O)C(CCC(=O)OCc1ccccc1)NC(=O)OC(C)(C)C (stereo unspecified) | > 100 | > 100 | > 100 | > 100 | > 100 | > 100 | > 100 | > 100 | > 100 | > 100 | > 100 | > 100 | > 100 | > 100 | > 100 | > 100 | > 100 | > 100 | > 100 | > 100
16 | COc1cc2ccc1OCc1cccc(n1)COc1ccc(cc1OC)C=Nc1ccc(cc1)-c1ccc(cc1)N=C2 | > 100 | > 100 | > 100 | > 100 | > 100 | > 100 | > 100 | > 100 | > 100 | > 100 | > 100 |  | > 100 | > 100 | > 100 | > 100 | > 100 | > 100 | > 100 | > 100
17 | O[C@H]1[C@H]2[C@H](O)C[C@H](CCOCc3ccccc3)CN2C[C@H]1O | > 100 | > 100 | > 100 | > 100 | > 100 | > 100 | > 100 | > 100 | > 100 | > 100 | > 100 | > 100 | > 100 | > 100 | > 100 | > 100 | > 100 | > 100 |  | > 100
18 | O=C(O)c1cc(O)c2c(c1)C([C@@H]1c3cccc(O)c3C(=O)c3c(O)cc(C(=O)O)cc31)c1cccc(O)c1C2=O (stereo partly specified) | > 100 | 69.3 | > 100 | > 100 | > 100 | 38.1 | 85.5 | 57.7 | 69.4 | 44.3 | 69.2 | > 100 | 96.9 | 32.2 | 62.6 | > 100 | > 100 | 67.8 |  | 31.9
19 | COc1cccc(NC(=O)CC(=O)N2N=C(C)C(N=Nc3ccc(S(=O)(=O)CCOS(=O)(=O)O)cc3)C2=O)c1 (stereo unspecified) | 9.07 | 22.7 | 41.1 | 10.5 | 29.6 | 13 | 6.85 | 13.2 | 88 | 36 | > 100 | 44.9 |  | 13.3 | 15.5 | > 100 | 24.2 | 17.9 | 26 | 4.25
20 | O=C(O)C1(Cc2ccc3c(c2)CCC3)Cc2ccccc2C1=O (stereo unspecified) | > 100 | > 100 | > 100 |  | > 100 | > 100 | > 100 | 87.3 | > 100 | > 100 | > 100 | > 100 | > 100 | > 100 | > 100 | > 100 | > 100 | > 100 | > 100 | > 100
21 | C[N+](C)(C)CC(=O)N/N=C(/CC1OC(=O)c2ccccc21)c1ccccc1O (stereo unspecified) | 86.5 | 77.1 | > 100 | > 100 | > 100 | > 100 | 52.3 | 87.6 | > 100 | > 100 | 42.4 | > 100 | > 100 | > 100 | > 100 | 34 | > 100 | 72.3 | > 100 | 43.2
22 | C#C[C@]1(O)CC[C@H]2[C@@H]3CCC4=C/C(=N\OCCN(CC)CC)CC[C@]4(C)[C@H]3CC[C@@]21C | 9.42 | 28.9 | > 41.4 | 39.7 | 25.8 | 17.6 | 3.42 | 52.9 | 7.51 | 11.4 | 1.04 | 32.2 | 10.8 | 7.37 | 10.9 | > 31.3 | 40.9 | > 38.3 | 16 | 13.1
23 | COc1ccc(CCNC(=O)CCc2ccccc2CO)cc1OC | > 100 | > 100 | > 100 | > 100 | > 100 | > 100 | > 100 | > 100 | > 100 | > 100 | > 100 | > 100 | > 100 | > 100 | > 100 | > 100 | > 100 | > 100 | > 100 | 
